Measurements from publication PMC8399180, “Bioactive Polyketide and Diketopiperazine Derivatives from the Mangrove-Sediment-Derived Fungus Aspergillus sp. SCSIO41407” (Molecules, 2021).
pIC50: −log10 of the molar value. In brackets after ≈: the same amount, converted by molar mass.

Experiments:
[1] = test system: LPS-induced NF-κB activation in RAW264.7 cells; experiment: Inhibition of LPS-induced NF-κB activation in RAW264.7 cells (luciferase reporter gene assay); assay type: cell-based; conditions: for Inhibitory activity against LPS-induced NF-κB activation: compounds at 10 μM, 5 μg/mL LPS for 8 h; for pIC50: Mus musculus, luciferase reporter
Protocol: The inhibitory activities of LPS-induced NF-κB activation in RAW264.7 cells was evaluated as detected by luciferase reporter gene assay as described previously. In brief, the RAW264.7 cells stably transfected with a luciferase reporter gene were plated in 96-well plates and then pretreated with testd compounds (10 μM) and BAY11-7082 (NF-κB inhibitor as positive control, 5 μM, Sigma-Aldrich) for 30 min, followed by 5 μg/mL LPS stimulation for 8 h. Cells were harvested, and luciferase activities of the triplicate tests were measured using the luciferase assay system (Promega, Madison, WI, USA).

[2] = test system: methicillin-resistant Staphylococcus aureus (MRSA); experiment: Antibacterial activity against MRSA (broth microdilution); assay type: cell-based
Protocol: The cytotoxicity of 1–8 and 10–15 against the A549 cell line was preliminarily evaluated via the MTT method as reported in our previous study, and the antibacterial activities of 1–15 against six bacterial strains, Acinetobacter baumannii (ATCC 19606), Staphylococcus aureus (ATCC 29213), Enterococcus faecalis (ATCC 29212), Klebsiella pneumoniae (ATCC 13883), MRSA, and Escherichia coli (ATCC 25922), were evaluated using a modification of the broth microdilution method.

[3] = target: acetylcholinesterase (AChE) (Homo sapiens, UniProt P22303); experiment: AChE inhibitory activity (modified Ellman method); assay type: biochemical; conditions: 0.1 U/mL AChE, pH 8.0, 30 °C; read-out: AChE inhibition IC50
Protocol: AChE inhibitory activity was evaluated in vitro according to the modified Ellman method. Briefly, 0.1 U/mL AChE solution was prepared by dissolving in phosphate buffer (pH 8.0). The test sample and enzyme buffer were mixed in 96-well plates and incubated for 20 min at 30 °C. Then, 5,5′-dithiobis (2-nitrobenzoic acid) and acetylthiocholine iodide were added, and the enzyme reaction was allowed to proceed for 30 min at 30 °C. AChE activity was determined by measuring the degradation of acetylthiocholine iodide to thiocholine and acetic acid at 405 nm using a microplate reader.

[4] = Cytotoxicity against A549 cell line (MTT method); assay type: cell-based; conditions: human, A549 cells, read-out: Cytotoxic Activities A549 (IC50)
[5] = test system: RANKL-induced osteoclast differentiation in bone marrow macrophages cells (BMMCs); experiment: RANKL-induced osteoclast differentiation in BMMCs (TRAP staining); assay type: cell-based; conditions: 5 μM, 3 days, TRAP-positive multinucleated cells
Protocol: Then, the cells were fixed and stained for TRAP activity and the images were photographed using an inverted microscope (Nikon, Tokyo, Japan). Data are expressed as the mean ± SD and analyzed using GraphPad Prism 7.0 software (GraphPad, San Diego, CA, USA). Statistical differences among groups were performed using one-way analysis of variance with a Bonferroni post-hoc test. A p-value of < 0.05 was considered statistically significant.

acetylcholinesterase (AChE), sequence (P22303 32-614, species assumed): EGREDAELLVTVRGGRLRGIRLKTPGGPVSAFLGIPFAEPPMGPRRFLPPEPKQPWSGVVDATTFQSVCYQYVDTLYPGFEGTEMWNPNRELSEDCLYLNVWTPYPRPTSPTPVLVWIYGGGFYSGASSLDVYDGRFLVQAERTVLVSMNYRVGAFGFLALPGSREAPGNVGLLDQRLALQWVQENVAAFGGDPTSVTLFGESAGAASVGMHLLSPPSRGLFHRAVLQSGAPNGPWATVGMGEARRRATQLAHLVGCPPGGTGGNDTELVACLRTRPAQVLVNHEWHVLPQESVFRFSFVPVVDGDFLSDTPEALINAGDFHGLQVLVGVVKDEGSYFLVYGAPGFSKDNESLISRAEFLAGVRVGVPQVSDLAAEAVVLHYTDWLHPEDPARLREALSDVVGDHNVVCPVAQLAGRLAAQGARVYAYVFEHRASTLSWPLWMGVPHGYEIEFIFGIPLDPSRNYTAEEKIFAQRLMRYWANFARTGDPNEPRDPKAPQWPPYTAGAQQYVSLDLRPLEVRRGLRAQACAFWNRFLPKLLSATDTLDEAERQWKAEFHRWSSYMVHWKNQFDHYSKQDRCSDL

| Compound | Inhibitory activity against LPS-induced NF-κB activation [1] | pIC50 [3] | further results |
| --- | --- | --- | --- |
| C/C=C/C(=O)Cc1cc(O)c(C)c(O)c1C=O [Compound 1, (E)-2,4-dihydroxy-3-methyl-6-(2-oxopent-3-en-1-yl) benzaldehyde] | obvious inhibitory activities |  |  |
| Cc1cc(=O)c2c(O)c(C)c(O)cc2o1 [Compound 2, eugenitol] |  |  | MIC ([2]; Staphylococcus aureus, read-out: Antibacterial Activities MRSA (MIC)): 485 µM (≈ 100 µg/mL) |
| CCCCCCCc1c(O)cc(CC=C(C)C)c(O)c1C=O [Compound 3, flavoglaucin] |  | 4.62 | pIC50 [4]: 4.65 |
| C/C=C/C=C/CCc1c(O)cc(CC=C(C)C)c(O)c1C=O [Compound 4, isodihydroauroglaucin] |  | 3.31 |  |
| CCCCC/C=C/c1c(O)cc(CC=C(C)C)c(O)c1C=O [Compound 5, tetrahydroauroglaucin] |  | 4.40 |  |
| CCC/C=C/C=C/c1c(O)cc(CC=C(C)C)c(O)c1C=O [Compound 6, dihydroauroglaucin] |  | 4.73 |  |
| C=CC(C)(C)c1[nH]c2ccccc2c1/C=C1\NC(=O)C(=O)NC1=O [Compound 10, neoechinulin E] | obvious inhibitory activities |  |  |
| C=CC(C)(C)c1[nH]c2ccccc2c1/C=C1\NC(=O)C(C)(OC)NC1=O (stereo not drawn) [Compound 11, variecolorin H] | obvious inhibitory activities |  | Effect on RANKL-induced osteoclast differentiation [5]: suppressed RANKL-induced osteoclast differentiation; pIC50 [1]: 4.72 |
| C=CC(C)(C)c1[nH]c2ccccc2c1/C=c1\[nH]c(=O)c(=C)[nH]c1=O [Compound 14, neoechinulin B] | obvious inhibitory activities |  | Effect on RANKL-induced osteoclast differentiation [5]: suppressed RANKL-induced osteoclast differentiation; pIC50 [1]: 5.06 |
| Gentamycin [reference compound] |  |  | Antibacterial Activities MRSA (MIC, μM) [2]: 1.4 µM |
